Reference: US7919493B2, “Anititumoral ecteinascidin derivatives” (Pharma Mar, S.A., priority 2001, dated 2011)
Values after ≈ are worked out from the molar mass of the structure shown.

What was measured:
Assay type in all cases: cell-based
[1] = system: A-549 (monolayer culture of a human lung carcinoma); test: Cytotoxic activity screening, A-549 cells; conditions: three days of incubation, Crystal Violet, approximate IC50; for IC50: Homo sapiens, A549, 72 h
Experimental: (§1) Cell Cultures. Cells were maintained in logarithmic phase of growth in Eagle's Minimum Essential Medium, with Earle's Balanced Salts, with 2.0 mM L-glutamine, with non-essential amino acids, without sodium bicarbonate (EMEM/neaa); supplemented with 10% Fetal Calf Serum (FCS), 10^−2 M sodium bicarbonate and 0.1 g/l penicillin-G+streptomycin sulfate.
(§2) A separate set of cultures without drug was seeded as control growth to ensure that cells remained in exponential phase of growth. All determinations were carried out in duplicate. After three days of incubation at 37° C., 10% CO2 in a 98% humid atmosphere, the wells were stained with 0.1% Crystal Violet. An approximately IC50 was determined by comparing the growth in wells with drug to the growth in wells control.

[2] = system: P-388 (suspension culture of a lymphoid neoplasm from DBA/2 mouse); test: Cytotoxic activity screening, P-388 cells; conditions: three days of incubation, approximate IC50 vs control growth; for IC50: Mus musculus, P388, 72 h
Experimental: as §1
(§3) A simple screening procedure has been carried out to determine and compare the antitumour activity of these compounds, using an adapted form of the method described by Bergeron et al (1984). The tumour cell line employed have been P-388 (suspension culture of a lymphoid neoplasm from DBA/2 mouse), A-549 (monolayer culture of a human lung carcinoma), HT-29 (monolayer culture of a human colon carcinoma) and MEL-28 (monolayer culture of a human melanoma).
P-388 cell were seeded into 16 mm wells at 1×10^4 cells per well in 1 ml aliquots of MEM 5FCS containing the indicated concentration of drug. A separate set of cultures without drug was seeded as control growth to ensure that cells remained in exponential phase of growth. All determinations were carried out in duplicate.

DU-145 = test: Cytotoxic activity screening, DU-145 cells; conditions: for IC50: Homo sapiens, DU-145, DU-145 cells
Experimental: [The source words this procedure for another cell line and reports this cell line under the same test.] as §1, §3
Examples of biological activities of the compounds described in the present application are in Table IV (IC50 (ng/mL)) on the following pages.

[3] = system: HT-29 (monolayer culture of a human colon carcinoma); test: Cytotoxic activity screening, HT-29 cells; conditions: three days of incubation, Crystal Violet, approximate IC50; for IC50: Homo sapiens, HT-29, 72 h
Experimental: as §1, §2

[4] = system: MEL-28 (monolayer culture of a human melanoma); test: Cytotoxic activity screening, MEL-28 cells; conditions: three days of incubation, Crystal Violet, approximate IC50; for IC50: Homo sapiens, SK-MEL-28, 72 h
Experimental: as §1, §3
as §2, with “A-549, HT-29 and MEL-28 were seeded into 16 mm wells at 2×10^4 cells per well in 1 ml aliquots of MEM 10FCS containing the indicated concentration of drug. A separate” for “A separate”

SMILES: COc1c(C)cc2c(c1O)[C@@H]1C3[C@@H]4SC[C@H](NC(=O)C(F)(F)F)C(=O)OC[C@@H](c5c6c(c(C)c(OC(C)=O)c54)OCO6)N3[C@@H](O)[C@H](C2)N1C (stereo in doubt) [Compound 4b]
- IC50 [1]: 0.5 ng/mL (≈ 0.705 nM)
- IC50 [2]: 0.5 ng/mL (≈ 0.705 nM)
- IC50 (DU-145): 0.5 ng/mL (≈ 0.705 nM)
- IC50 [3]: 0.5 ng/mL (≈ 0.705 nM)
- IC50 [4]: 0.5 ng/mL (≈ 0.705 nM)

SMILES: COc1c(C)cc2c(c1O)[C@@H]1C3[C@@H]4SC[C@H](NC(=O)/C=C/c5ccccc5)C(=O)OC[C@@H](c5c6c(c(C)c(OC(C)=O)c54)OCO6)N3[C@@H](O)[C@H](C2)N1C (stereo in doubt) [Compound 4h]
- IC50 [1]: 0.5 ng/mL (≈ 0.672 nM)
- IC50 [2]: 0.5 ng/mL (≈ 0.672 nM)
- IC50 (DU-145): 0.5 ng/mL (≈ 0.672 nM)
- IC50 [3]: 0.5 ng/mL (≈ 0.672 nM)
- IC50 [4]: 0.5 ng/mL (≈ 0.672 nM)

SMILES: COc1c(C)cc2c(c1O)[C@@H]1C3[C@@H]4SC[C@@H](NC(C)=O)C(=O)OC[C@@H](c5c6c(c(C)c(OC(C)=O)c54)OCO6)N3[C@@H](C#N)[C@H](C2)N1C (some centres unmarked) [Compound 3a]
- IC50 [1]: 0.5 ng/mL (≈ 0.752 nM)
- IC50 [2]: 0.5 ng/mL (≈ 0.752 nM)
- IC50 (DU-145): 0.5 ng/mL (≈ 0.752 nM)
- IC50 [3]: 0.5 ng/mL (≈ 0.752 nM)
- IC50 [4]: 0.5 ng/mL (≈ 0.752 nM)

SMILES: COc1c(C)cc2c(c1O)[C@@H]1C3[C@@H]4SC[C@H](NC(=O)C(F)(F)F)C(=O)OC[C@@H](c5c6c(c(C)c(OC(C)=O)c54)OCO6)N3[C@@H](C#N)[C@H](C2)N1C (some centres unmarked) [Compound 3b]
- IC50 [1]: 1 ng/mL (≈ 1.39 nM)
- IC50 [2]: 1 ng/mL (≈ 1.39 nM)
- IC50 (DU-145): 1 ng/mL (≈ 1.39 nM)
- IC50 [3]: 1 ng/mL (≈ 1.39 nM)
- IC50 [4]: 1 ng/mL (≈ 1.39 nM)

SMILES: CCCC(=O)N[C@H]1CS[C@@H]2c3c(OC(C)=O)c(C)c4c(c3[C@H](COC1=O)N1C2[C@H]2c3c(cc(C)c(OC)c3O)C[C@@H]([C@@H]1C#N)N2C)OCO4 (some centres unmarked) [Compound 3c]
- IC50 [1]: 0.1 ng/mL (≈ 0.144 nM)
- IC50 [2]: 0.1 ng/mL (≈ 0.144 nM)
- IC50 (DU-145): 0.1 ng/mL (≈ 0.144 nM)
- IC50 [3]: 0.1 ng/mL (≈ 0.144 nM)
- IC50 [4]: 0.1 ng/mL (≈ 0.144 nM)

SMILES: COc1c(C)cc2c(c1O)[C@@H]1C3[C@@H]4SC[C@H](NC(=O)CC(C)C)C(=O)OC[C@@H](c5c6c(c(C)c(OC(C)=O)c54)OCO6)N3[C@@H](C#N)[C@H](C2)N1C (some centres unmarked) [Compound 3d]
- IC50 [1]: 0.1 ng/mL (≈ 0.141 nM)
- IC50 [2]: 0.1 ng/mL (≈ 0.141 nM)
- IC50 (DU-145): 0.1 ng/mL (≈ 0.141 nM)
- IC50 [3]: 0.1 ng/mL (≈ 0.141 nM)
- IC50 [4]: 0.1 ng/mL (≈ 0.141 nM)

SMILES: CCCCCCCC(=O)N[C@H]1CS[C@@H]2c3c(OC(C)=O)c(C)c4c(c3[C@H](COC1=O)N1C2[C@H]2c3c(cc(C)c(OC)c3O)C[C@@H]([C@@H]1C#N)N2C)OCO4 (some centres unmarked) [Compound 3e]
- IC50 [1]: 1 ng/mL (≈ 1.34 nM)
- IC50 [2]: 1 ng/mL (≈ 1.34 nM)
- IC50 (DU-145): 1 ng/mL (≈ 1.34 nM)
- IC50 [3]: 1 ng/mL (≈ 1.34 nM)
- IC50 [4]: 1 ng/mL (≈ 1.34 nM)

SMILES: CCCCCCCCCCCCCCCC(=O)N[C@H]1CS[C@@H]2c3c(OC(C)=O)c(C)c4c(c3[C@H](COC1=O)N1C2[C@H]2c3c(cc(C)c(OC)c3O)C[C@@H]([C@@H]1C#N)N2C)OCO4 (some centres unmarked) [Compound 3f]
- IC50 A-549 [1]: >1-10^3 ng/mL
- IC50 P-388 [2]: >1-10^3 ng/mL
- IC50 DU-145 (DU-145; DU-145 cells): >1-10^3 ng/mL
- IC50 HT-29 [3]: >1-10^3 ng/mL
- IC50 MEL-28 [4]: >1-10^3 ng/mL

SMILES: COc1c(C)cc2c(c1O)[C@@H]1C3[C@@H]4SC[C@H](NC(=O)c5ccccc5)C(=O)OC[C@@H](c5c6c(c(C)c(OC(C)=O)c54)OCO6)N3[C@@H](C#N)[C@H](C2)N1C (some centres unmarked) [Compound 3g]
- IC50 [1]: 0.1 ng/mL (≈ 0.138 nM)
- IC50 [2]: 0.1 ng/mL (≈ 0.138 nM)
- IC50 (DU-145): 0.1 ng/mL (≈ 0.138 nM)
- IC50 [3]: 0.1 ng/mL (≈ 0.138 nM)
- IC50 [4]: 0.1 ng/mL (≈ 0.138 nM)

SMILES: COc1c(C)cc2c(c1O)[C@@H]1C3[C@@H]4SC[C@H](NC(=O)/C=C/c5ccccc5)C(=O)OC[C@@H](c5c6c(c(C)c(OC(C)=O)c54)OCO6)N3[C@@H](C#N)[C@H](C2)N1C (some centres unmarked) [Compound 3h]
- IC50 [1]: 0.5 ng/mL (≈ 0.664 nM)
- IC50 [2]: 0.5 ng/mL (≈ 0.664 nM)
- IC50 (DU-145): 0.5 ng/mL (≈ 0.664 nM)
- IC50 [3]: 0.5 ng/mL (≈ 0.664 nM)
- IC50 [4]: 0.5 ng/mL (≈ 0.664 nM)

SMILES: COc1c(C)cc2c(c1O)[C@@H]1C3[C@@H]4SC[C@H](NC(=O)/C=C/c5ccc(C(F)(F)F)cc5)C(=O)OC[C@@H](c5c6c(c(C)c(OC(C)=O)c54)OCO6)N3[C@@H](C#N)[C@H](C2)N1C (some centres unmarked) [Compound 3i]
- IC50 [1]: 5 ng/mL (≈ 6.09 nM)
- IC50 [2]: 5 ng/mL (≈ 6.09 nM)
- IC50 (DU-145): 5 ng/mL (≈ 6.09 nM)
- IC50 [3]: 5 ng/mL (≈ 6.09 nM)
- IC50 [4]: 5 ng/mL (≈ 6.09 nM)

SMILES: COc1c(C)cc2c(c1O)[C@@H]1C3[C@@H]4SC[C@H](N5C(=O)c6ccccc6C5=O)C(=O)OC[C@@H](c5c6c(c(C)c(OC(C)=O)c54)OCO6)N3[C@@H](C#N)[C@H](C2)N1C (some centres unmarked) [Compound 3j]
- IC50 [1]: 5 ng/mL (≈ 6.64 nM)
- IC50 [2]: 5 ng/mL (≈ 6.64 nM)
- IC50 (DU-145): 5 ng/mL (≈ 6.64 nM)
- IC50 [3]: 5 ng/mL (≈ 6.64 nM)
- IC50 [4]: 5 ng/mL (≈ 6.64 nM)

SMILES: COc1c(C)cc2c(c1O)[C@@H]1C3[C@@H]4SC[C@H](NC(=O)CCCCC5SCC6NC(=O)NC65)C(=O)OC[C@@H](c5c6c(c(C)c(OC(C)=O)c54)OCO6)N3[C@@H](C#N)[C@H](C2)N1C (some centres unmarked) [Compound 3k]
- IC50 [1]: 10 ng/mL (≈ 11.8 nM)
- IC50 [2]: 10 ng/mL (≈ 11.8 nM)
- IC50 (DU-145): 5 ng/mL (≈ 5.89 nM)
- IC50 [3]: 5 ng/mL (≈ 5.89 nM)
- IC50 [4]: 5 ng/mL (≈ 5.89 nM)
